Measurements as given in PubChem BioAssay AID256 (DTP/NCI, 2004).
Inconclusive results and toxic doses are left out. Rule for the calls: active = survival T/C of 150% or more; inactive = T/C below 125% in these data.

Tested on: CD2F1 mice, L1210 leukemia ip, survival T/C
Assay: NCI In Vivo Anticancer Drug Screen. Data for tumor model L1210 Leukemia (intraperitoneal) in CD2F1 (CDF1) mice
Settings: higher = longer survival
In short: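 Read-out first: treated-group measurement over vehicle-control measurement, expressed as a ratio. Animals bore a transplanted tumor line and were dosed with compound or vehicle.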

[1] = endpoint: mean survival time, dose: 100.0 mg/kg/injection, schedule: Q01DX001 (ip), vehicle: saline
[2] = endpoint: mean survival time, dose: 200.0 mg/kg/injection, schedule: Q01DX001 (ip), vehicle: saline
[3] = endpoint: mean survival time, dose: 25.0 mg/kg/injection, schedule: Q01DX001 (ip), vehicle: Klucel (hydroxypropylcellulose) (HPC)
[4] = endpoint: mean survival time, dose: 25.0 mg/kg/injection, schedule: Q01DX009 (ip), vehicle: saline with Tween-80
[5] = endpoint: mean survival time, dose: 50.0 mg/kg/injection, schedule: Q01DX009 (ip), vehicle: saline with Tween-80
[6] = endpoint: mean survival time, dose: 100.0 mg/kg/injection, schedule: Q01DX009 (ip), vehicle: saline with Tween-80
[7] = endpoint: mean survival time, dose: 100.0 mg/kg/injection, schedule: Q04DX003 (ip), vehicle: saline with Tween-80
[8] = endpoint: mean survival time, dose: 100.0 mg/kg/injection, schedule: Q04DX003 (ip), vehicle: saline
[9] = endpoint: mean survival time, dose: 200.0 mg/kg/injection, schedule: Q04DX003 (ip), vehicle: saline
[10] = endpoint: mean survival time, dose: 50.0 mg/kg/injection, schedule: Q01DX001 (ip), vehicle: carboxymethylcellulose (CMC)
[11] = endpoint: mean survival time, dose: 100.0 mg/kg/injection, schedule: Q01DX001 (ip), vehicle: carboxymethylcellulose (CMC)
[12] = endpoint: mean survival time, dose: 200.0 mg/kg/injection, schedule: Q01DX001 (ip), vehicle: carboxymethylcellulose (CMC)
[13] = endpoint: mean survival time, dose: 400.0 mg/kg/injection, schedule: Q01DX001 (ip), vehicle: carboxymethylcellulose (CMC)

Measured: T/C

O=C(Nc1cc(Cl)c(I)cc1Cl)C(F)(F)F
inactive: [1] 102 % of control | [2] 111 % of control | endpoint: mean survival time, dose: 400.0 mg/kg/injection, schedule: Q01DX001 (ip), vehicle: saline 90 % of control

Nc1nc(NNC(=O)c2ccccc2)c2nonc2n1
inactive: endpoint: mean survival time, dose: 12.5 mg/kg/injection, schedule: Q01DX005 (ip), vehicle: other 95 % of control | endpoint: mean survival time, dose: 25.0 mg/kg/injection, schedule: Q01DX005 (ip), vehicle: other 95 % of control | endpoint: mean survival time, dose: 50.0 mg/kg/injection, schedule: Q01DX005 (ip), vehicle: other 91 % of control | endpoint: mean survival time, dose: 200.0 mg/kg/injection, schedule: Q01DX005 (ip), vehicle: other 91 % of control

[Cl][Pt][Cl].[NH-]C(CO)C(=O)O (stereo not given)
inactive: endpoint: mean survival time, dose: 3.13 mg/kg/injection, schedule: Q04DX003 (ip), vehicle: water 106 % of control | endpoint: mean survival time, dose: 6.25 mg/kg/injection, schedule: Q04DX003 (ip), vehicle: water 113 % of control | endpoint: mean survival time, dose: 12.5 mg/kg/injection, schedule: Q04DX003 (ip), vehicle: water 113 % of control | endpoint: mean survival time, dose: 25.0 mg/kg/injection, schedule: Q04DX003 (ip), vehicle: water 118 % of control | endpoint: mean survival time, dose: 50.0 mg/kg/injection, schedule: Q04DX003 (ip), vehicle: water 119 % of control | endpoint: mean survival time, dose: 100.0 mg/kg/injection, schedule: Q04DX003 (ip), vehicle: water 95 % of control | endpoint: median survival time, dose: 6.25 mg/kg/injection, schedule: Q01DX009 (ip), vehicle: water 117 % of control | endpoint: median survival time, dose: 12.5 mg/kg/injection, schedule: Q01DX009 (ip), vehicle: water 117 % of control | endpoint: median survival time, dose: 25.0 mg/kg/injection, schedule: Q01DX009 (ip), vehicle: water 124 % of control

CCCCCCCCCN=C(N)CSSCC(N)=NCCCCCCCCC
inactive: endpoint: mean survival time, dose: 12.5 mg/kg/injection, schedule: Q01DX001 (ip), vehicle: Klucel (hydroxypropylcellulose) (HPC) 94 % of control | [3] 101 % of control

NC(=S)N=Nc1c(O)cc(O)c2[nH]c(=O)ccc12
inactive: [1] 109 % of control

CCOC(=O)c1cc(C)[nH]c(=O)c1C#N
inactive: [4] 93 % of control | endpoint: mean survival time, dose: 25.0 mg/kg/injection, schedule: Q04DX003 (ip), vehicle: saline with Tween-80 102 % of control | [5] 96 % of control | endpoint: mean survival time, dose: 50.0 mg/kg/injection, schedule: Q04DX003 (ip), vehicle: saline with Tween-80 102 % of control | [6] 93 % of control | [7] 98 % of control

CCOC(=O)Nc1cc2c(c(N)n1)N=C(CCc1ccccc1)CN2
inactive: [3] 107 % of control | endpoint: mean survival time, dose: 50.0 mg/kg/injection, schedule: Q01DX001 (ip), vehicle: Klucel (hydroxypropylcellulose) (HPC) 114 % of control | endpoint: mean survival time, dose: 200.0 mg/kg/injection, schedule: Q01DX001 (ip), vehicle: Klucel (hydroxypropylcellulose) (HPC) 116 % of control

N#Cc1cn(C2CCCCC2)c2ncccc12
inactive: [8] 113 % of control | [9] 97 % of control

COc1ccc(NC(=O)c2ccc(S(=O)(=O)F)cc2)cc1
inactive: endpoint: mean survival time, dose: 100.0 mg/kg/injection, schedule: Q01DX001 (ip), vehicle: saline with Tween-80 97 % of control | endpoint: mean survival time, dose: 200.0 mg/kg/injection, schedule: Q01DX001 (ip), vehicle: saline with Tween-80 95 % of control | endpoint: mean survival time, dose: 400.0 mg/kg/injection, schedule: Q01DX001 (ip), vehicle: saline with Tween-80 94 % of control

O/N=C1\c2ccccc2-c2ccc(F)cc21
inactive: [10] 104 % of control | [11] 108 % of control | [12] 104 % of control | [13] 102 % of control

Cc1c2cnccc2c(C)c2c1c1ccccc1n2CCNCCO
inactive: endpoint: mean survival time, dose: 50.0 mg/kg/injection, schedule: Q01DX009 (ip), vehicle: saline sonified 113 % of control | endpoint: mean survival time, dose: 100.0 mg/kg/injection, schedule: Q01DX009 (ip), vehicle: saline sonified 87 % of control

CC1CCCCC1O (stereo not given)
inactive: [10] 97 % of control | [5] 103 % of control | [11] 108 % of control | [6] 103 % of control | [8] 103 % of control | [12] 92 % of control | endpoint: mean survival time, dose: 200.0 mg/kg/injection, schedule: Q01DX009 (ip), vehicle: saline with Tween-80 95 % of control | [9] 103 % of control | [13] 100 % of control | endpoint: mean survival time, dose: 400.0 mg/kg/injection, schedule: Q04DX003 (ip), vehicle: saline 95 % of control

C=C(C)CCNc1ncnc2nc[nH]c12
inactive: [7] 97 % of control | endpoint: mean survival time, dose: 200.0 mg/kg/injection, schedule: Q04DX003 (ip), vehicle: saline with Tween-80 101 % of control | endpoint: mean survival time, dose: 400.0 mg/kg/injection, schedule: Q04DX003 (ip), vehicle: saline with Tween-80 95 % of control

O=S(=O)(O)SCCN1CCCCC1
inactive: endpoint: mean survival time, dose: 12.5 mg/kg/injection, schedule: Q01DX009 (ip), vehicle: saline 104 % of control | endpoint: mean survival time, dose: 12.5 mg/kg/injection, schedule: Q04DX003 (ip), vehicle: saline sonified 102 % of control | endpoint: mean survival time, dose: 25.0 mg/kg/injection, schedule: Q01DX009 (ip), vehicle: saline 106 % of control | endpoint: mean survival time, dose: 25.0 mg/kg/injection, schedule: Q04DX003 (ip), vehicle: saline sonified 101 % of control | endpoint: mean survival time, dose: 50.0 mg/kg/injection, schedule: Q01DX009 (ip), vehicle: saline 104 % of control | endpoint: mean survival time, dose: 50.0 mg/kg/injection, schedule: Q04DX003 (ip), vehicle: saline sonified 91 % of control

CN(C)/N=C(\CBr)c1ccc([N+](=O)[O-])cc1
inactive: [1] 100 % of control | [2] 94 % of control

CC[O+](CC)CC
inactive: endpoint: mean survival time, dose: 12.5 mg/kg/injection, schedule: Q04DX002 (ip), vehicle: saline 95 % of control | endpoint: mean survival time, dose: 25.0 mg/kg/injection, schedule: Q04DX002 (ip), vehicle: saline 91 % of control | endpoint: mean survival time, dose: 50.0 mg/kg/injection, schedule: Q04DX002 (ip), vehicle: saline 95 % of control

Cc1ccc(NC(=O)c2cccc(C(=O)Nc3ccc(C)cc3C)c2)c(C)c1
inactive: endpoint: mean survival time, dose: 12.5 mg/kg/injection, schedule: Q01DX009 (ip), vehicle: saline with Tween-80 94 % of control | [4] 90 % of control | [5] 89 % of control

O=C(CCCl)Oc1c(Cl)c(Cl)c(Cl)c(Cl)c1Cl
inactive: [6] 92 % of control

CC1(C)C(N2CCCCC2)CS1(=O)=O (stereo not given)
inactive: endpoint: mean survival time, dose: 25.0 mg/kg/injection, schedule: Q04DX003 (ip), vehicle: saline 98 % of control | endpoint: mean survival time, dose: 50.0 mg/kg/injection, schedule: Q04DX003 (ip), vehicle: saline 95 % of control | [1] 101 % of control
